Consider 12 compounds from patent publication US20180093956A1, “SUBSTITUTED PHTHALAZINES” (AbbVie Inc., priority 2015, published 2018).

Each structure is given as a SMILES string.

Assay [1] relates to H4K20me3 in PC-3 cells (SUV420H1 cellular activity). Description: H4K20me3 Cellular PD Assay (high content microscopy). Format: cell-based. Particulars: Homo sapiens, treated for 72 hours, H4K20me3 immunofluorescence, read-out: H4K20me3 Inhibition EC50. The protocol: A high content microscopy-based PD assay was used to analyze the decrease of H4K20me3 upon inhibition of SUV420H1 cellular activity. PC-3 cells were plated at 3,000 cells per well in black Collagen I coated 96-well plates (Perkin Elmer, #6005810) in RPMI supplemented with 10% heat inactivated FBS, 1% sodium pyruvate and 1% non-essential amino acids in a 37° C. tissue culture incubator. At 24 hours post seeding, cells were treated with the indicated compounds for 72 hours in an 8-point dose response using half log dilutions from […] and then fixed in 2% formaldhyde (Polysciences, Inc., #04018) for 10 minutes at room temperature. Cells were washed in PBS and permeablized in 0.1% Triton X-100 for 10 minutes at room temperature. After blocking in 1% BSA (Sigma, #A7030) in PBS for 1 hour at room temperature, a mouse monoclonal antibody directed toward H4K20me3 (Santa Cruz, #sc-134216) in antibody dilution buffer (0.3% BSA in PBS) was added for 16 hours at 4° C. Cells were then washed 3 times in PBS and an Alexa Fluor 555 conjugated goat anti-mouse (Life Technologies #A-21424) secondary antibody was added for 1 hour at room temperature. Hoechst 33342 diluted 1:10000 (Life Technologies #H3570) was also added during the secondary antibody incubation. Cells were washed 3 times in PBS and stored in PBS at 4° C. Fluorescent images were acquired within 24 hours on a Cell Insight (Thermo Fisher Scientific) using the Target Activation algorithm. Objects were identified via nuclear Hoescht staining, and changes in average mean intensity in the fluorescent signals of H4K20me3 were quantified using the HCS View software platform (Thermo Fisher Scientific).

A further assay deals with SUV420H1 enzyme (Homo sapiens, UniProt Q4FZB7). Put plainly: TR-FRET SAH SUV420H1 enzyme inhibition assay. It counts as biochemical. Conditions: Histone Peptide H4(8-30)me1 and SAM, TR-FRET detection of SAH, read-out: TR-FRET SAH_SUV420H1 IC50. Background: Time-resolved FRET reads energy transfer from a long-lived donor to a nearby acceptor.
Sequence of SUV420H1 enzyme (Q4FZB7 whole entry): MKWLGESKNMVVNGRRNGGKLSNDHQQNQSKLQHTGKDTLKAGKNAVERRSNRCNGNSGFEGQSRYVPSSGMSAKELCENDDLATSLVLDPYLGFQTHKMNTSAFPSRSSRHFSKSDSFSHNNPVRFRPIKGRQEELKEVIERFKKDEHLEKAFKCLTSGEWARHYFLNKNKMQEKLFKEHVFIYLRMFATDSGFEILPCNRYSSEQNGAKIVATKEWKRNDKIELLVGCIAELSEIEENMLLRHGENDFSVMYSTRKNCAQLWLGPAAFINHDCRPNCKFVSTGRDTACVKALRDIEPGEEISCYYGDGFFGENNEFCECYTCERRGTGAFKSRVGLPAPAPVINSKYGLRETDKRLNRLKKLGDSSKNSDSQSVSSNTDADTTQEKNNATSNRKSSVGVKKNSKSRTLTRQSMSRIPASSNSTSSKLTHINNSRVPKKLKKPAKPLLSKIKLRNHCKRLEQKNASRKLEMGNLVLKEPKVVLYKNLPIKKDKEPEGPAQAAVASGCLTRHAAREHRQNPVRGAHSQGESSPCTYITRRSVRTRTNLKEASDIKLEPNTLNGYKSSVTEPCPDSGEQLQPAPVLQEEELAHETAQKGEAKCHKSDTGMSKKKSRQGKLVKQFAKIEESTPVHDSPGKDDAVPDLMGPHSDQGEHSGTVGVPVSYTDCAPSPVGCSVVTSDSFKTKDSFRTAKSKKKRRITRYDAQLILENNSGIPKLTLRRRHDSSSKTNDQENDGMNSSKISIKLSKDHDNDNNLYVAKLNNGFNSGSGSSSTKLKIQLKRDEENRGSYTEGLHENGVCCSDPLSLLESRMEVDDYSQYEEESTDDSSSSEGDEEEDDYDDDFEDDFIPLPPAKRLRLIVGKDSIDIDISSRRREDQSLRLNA

What is called EC50 is the concentration giving half of the maximal effect. Usually IC50 stands for the concentration that gives 50% inhibition. For the compound `OCCNc1ccc(-c2nnc(NC3CCCC3)c3cc(Cl)c(Cl)cc23)cn1` [Example 30, 2-({5-[6,7-dichloro-4-(cyclopentylamino)phthalazin-1-yl]pyridin-2-yl}amino)ethanol], the EC50 in assay [1] was found to be 465 nM. At SUV420H1 enzyme, the IC50 stood at 1050 nM.

For `COC(=O)c1nnc(NC2CCCC2)c2cc(Cl)c(Cl)cc12` [Example 37, methyl 6,7-dichloro-4-(cyclopentylamino)phthalazine-1-carboxylate], the EC50 in assay [1] was 1120 nM. Moreover, the IC50 on SUV420H1 enzyme was determined as 90.3 nM.

For the compound `NC1CCN(c2cc(-c3nnc(NC4CCCC4)c4cc(Cl)c(Cl)cc34)ccn2)C1` (stereo not drawn) [Example 40, 4-[2-(3-aminopyrrolidin-1-yl)pyridin-4-yl]-6,7-dichloro-N-cyclopentylphthalazin-1-amine], the EC50 in assay [1] amounted to 532 nM. The IC50 on SUV420H1 enzyme was determined as 229 nM.

For the compound `NC(=O)c1nnc(NC2CCCC2)c2cc(Cl)c(Cl)cc12` [Example 42, 6,7-dichloro-4-(cyclopentylamino)phthalazine-1-carboxamide], the EC50 in assay [1] was 2830 nM. Further, on SUV420H1 enzyme, the IC50 was determined as 127 nM.

Regarding `CC(C)(C)OC(=O)Cn1cc(-c2nnc(NC3CCCC3)c3cc(Cl)c(Cl)cc23)cn1` [Example 43, tert-butyl {4-[6,7-dichloro-4-(cyclopentylamino)phthalazin-1-yl]-1H-pyrazol-1-yl}acetate], the EC50 in assay [1] came out at 7910 nM. On SUV420H1 enzyme, the IC50 worked out at 174 nM.

Regarding `Cn1cc(NC(=O)c2nnc(NC3CCCC3)c3cc(Cl)c(Cl)cc23)cn1` [Example 54, 6,7-dichloro-4-(cyclopentylamino)-N-(1-methyl-1H-pyrazol-4-yl)phthalazine-1-carboxamide], the EC50 in assay [1] was above 20000 nM. For the same compound, the IC50 on SUV420H1 enzyme was determined as 147 nM.

As to `O=C(Cn1cc(-c2nnc(NC3CCCC3)c3cc(Cl)c(Cl)cc23)cn1)NCCO` [Example 56, 2-{4-[6,7-dichloro-4-(cyclopentylamino)phthalazin-1-yl]-1H-pyrazol-1-yl}-N-(2-hydroxyethyl)acetamide], in assay [1], the EC50 was 6730 nM. The IC50 at SUV420H1 enzyme stood at 165 nM.

With `CN(CCO)C(=O)Cn1cc(-c2nnc(NC3CCCC3)c3cc(Cl)c(Cl)cc23)cn1` [Example 57, 2-{4-[6,7-dichloro-4-(cyclopentylamino)phthalazin-1-yl]-1H-pyrazol-1-yl}-N-(2-hydroxyethyl)-N-methylacetamide], the EC50 in assay [1] was determined as 10700 nM. Moreover, the IC50 at SUV420H1 enzyme was determined as 204 nM.

As for `CN1CCN(C(=O)Cn2cc(-c3nnc(NC4CCCC4)c4cc(Cl)c(Cl)cc34)cn2)CC1` [Example 61, 2-{4-[6,7-dichloro-4-(cyclopentylamino)phthalazin-1-yl]-1H-pyrazol-1-yl}-1-(4-methylpiperazin-1-yl)ethanone], the EC50 in assay [1] is 4990 nM. Besides, the IC50 on SUV420H1 enzyme turned out to be 190 nM.

On to `CC(=O)N1CCN(C(=O)Cn2cc(-c3nnc(NC4CCCC4)c4cc(Cl)c(Cl)cc34)cn2)CC1` [Example 62, 1-(4-acetylpiperazin-1-yl)-2-{4-[6,7-dichloro-4-(cyclopentylamino)phthalazin-1-yl]-1H-pyrazol-1-yl}ethanone], for which the EC50 in assay [1] was 10500 nM. In addition, the IC50 on SUV420H1 enzyme amounted to 333 nM.

On to `O=C(Cn1cc(-c2nnc(NC3CCCC3)c3cc(Cl)c(Cl)cc23)cn1)N1CCC(O)CC1` [Example 64, 2-{4-[6,7-dichloro-4-(cyclopentylamino)phthalazin-1-yl]-1H-pyrazol-1-yl}-1-(4-hydroxypiperidin-1-yl)ethanone], for which the EC50 in assay [1] came out at 6570 nM. Moreover, the IC50 at SUV420H1 enzyme was 188 nM.

Consider `O=C(NCCO)c1nnc(NC2CCCC2)c2cc(Cl)c(Cl)cc12` [Example 66, 6,7-dichloro-4-(cyclopentylamino)-N-(2-hydroxyethyl)phthalazine-1-carboxamide], for which the EC50 in assay [1] was found to be 2490 nM. Also, the IC50 at SUV420H1 enzyme is 140 nM.
